Legend:
embryo implantation = embryo implantation in oxytocin-treated mice; format: in vivo; conditions: oxytocin-treated mice
Excerpt: Indeed, in mice, NAC was confirmed to support embryo implantation. In the animal model, embryo implantation rate was decreased when the mice were given oxytocin.
In mice, NAC was confirmed to support embryo implantation. In the animal model, embryo implantation rate was decreased when the mice were given oxytocin.

[1] = test system: Isolated uteri from virgin Wistar rats; test: isolated organ bath study of uterine contractions; set-up: species or system rat
Procedure: Animals were kept at 22° C., housed 3 per cage and fed ad libitum. Isolated uteri from virgin Wistar rats (200-280 g) in estrous, which was determined by examination of a daily vaginal smear, were used.
Protamine sulphate (PS) and NAC were dissolved in pure water.
All rats were sacrificed by cervical dislocation. The uterine horns were excised, carefully cleaned and mounted vertically in a 10 ml volume organ bath containing De Jalon's solution (NaCl 154 mM, KCl 5.6 mM, CaCl2×2H2O 0.41 mM, NaHCO 2 5.9 mM and glucose 2.8 mM), under 1 g tension, aerated with 95% oxygen and 5% carbon dioxide at 37° C. […] After 10 min increasing concentrations of PS were added until the total cessation of contractions was observed.
Myometrial tension was recorded isometrically with an organ bath and transducer.
Effects of treatments on uterine contractions were calculated as percentages for control, untreated and contracting conditions. Each data value is expressed as the mean±SEM. differences between groups were analyzed by two-way ANOVA. EC50 values were compared using one-way ANOVA

[2] = test system: normal human epidermal keratinocytes; test: micro array gene expression analysis (Affymetrix GeneChip); format: cell-based; conditions: vs untreated
Procedure: The present experiments were carried out to elucidate if NAC treatment influence integrin and fibronectin gene expression by gene expression analysis using the Affymetrix GeneChip platform.
A micro array based gene expression analysis of the normal human epidermal keratinocytes was performed 1 and 12 hours after addition of NAC, compared to untreated (i.e. control samples at the same time points). Data obtained from GeneChip analysis were processed using the RNA analysis approach and samples were normalized to their corresponding controls. Filtering was done based on two criteria (p-value <0.1 and >1.5 fold up- or >0.5 down-regulation) for each time point. The labelling and hybridisation was done in duplicate.

Jurkat cells = test: Cell adhesion assay of Jurkat cells on fibronectin; format: cell-based, human; conditions: NAC 5 mM for 2 h pretreatment, eosin Y absorbance 540 nm, vs control
Procedure: Cell Adhesion Assay. Seven μg/ml of human fibronectin (Sigma Aldrich Chem Co) were saturated with 2% bovine serum albumin (BSA) for 30 min at 37° C. and washed twice with phosphate buffered saline (PBS). Jurkat cells were then seeded onto the wells for 2 h at 37° C.; then, nonadherent cells were aspirated, and the wells were rinsed with PBS. Adhering cells were fixed overnight with 2% formaldehyde and stained with eosin Y for 30 min. Eosin Y was then extracted by addition of a mixture of 1% of glacial acetic acid and 50% ethanol, and absorbance was measured at 540 nm.
NAC increases the adhesions of Jurkat cells on fibronectin. The adhesion assay was performed by using control or NAC (5 mM for 2 h)-treated Jurkat cells. […] Cell adhesion was then quantitated by staining the cells attached to junction protein-coated plates with eosin Y and reading the absorbance in a microplate reader.
Cells were solubilized and eosin Y and absorbance was quantitated at 540 nm. No antibody, illustrated by black bars; anti-VLA-4 (10 ng/ml) illustrated by grey bars; and anti-VLA-4 (10 μg/ml) illustrated by white bars. Data are means+/−SE(n=3).*, P less than 0.01 vs. control. From FIG. 1 it can be concluded that NAC treatment increases adhesion (junction protein molecules).

With `CC(=O)N[C@@H](CS)C(=O)O` [NAC, N-acetyl-L-cysteine] the implantation rates (embryo implantation) was “dose-dependently restored”, the “effect of pre-treatment on PS-induced relaxation” value ([1]; NAC pre-treatment 1 μg/ml, spontaneously active uteri) was “increased PS-induced relaxation” and the “effect of pre-treatment on PS-induced relaxation” value ([1]; calcium ion-induced uterine contractions) was “modulated PS-induced relaxation”. For the same compound, the “integrin alpha 2 gene expression” value ([2]; 1 hr after NAC treatment) was “up-regulated”, the fibronectin gene expression ([2]; 12 hours after NAC) was “upregulated” and the “augmentation of cell adhesion” value (Jurkat cells) was roughly 35%.
